{"source": "patent US7785578B2", "about": "“Non-invasive ocular drug delivery” (Aciont, Inc., priority 2002, dated 2010)", "origin": "cited, not measured here", "details": "following a 5 mg peribulbar injection; comparable to a high oral dose (approximately 7.5 mg)", "data": [{"smiles": "C[C@@H]1C[C@H]2[C@@H]3CCC4=CC(=O)C=C[C@]4(C)[C@@]3(F)[C@@H](O)C[C@]2(C)[C@@]1(O)C(=O)CO", "note": "[dexamethasone]", "values": [{"measurement": "systemic levels in plasma", "result": 60, "unit": "ng/mL"}]}]}
